The record followed here is patent US9174980B2, “Heterocyclic compounds as inhibitors of leukotriene production” (Boehringer Ingelheim International GmbH, priority 2012, dated 2015).

Experiment [1] addresses T1, recombinant human FLAP protein (Homo sapiens, UniProt P20292).
T1 construct: made in house; host or cells: Sf9 insect cells (membrane fraction, 100,000 x g pellet)
T1 sequence (P20292 1-161): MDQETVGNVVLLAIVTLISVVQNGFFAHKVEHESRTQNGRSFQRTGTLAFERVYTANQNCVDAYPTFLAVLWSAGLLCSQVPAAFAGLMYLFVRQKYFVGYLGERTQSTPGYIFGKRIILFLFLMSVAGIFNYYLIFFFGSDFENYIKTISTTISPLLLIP
The experiment in a line: FLAP binding assay (Scintillation Proximity Assay, displacement of [125I]L-691,831). Particulars: read-out: Human FLAP SPA Binding (IC50 nM). Put shortly:
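Membranes from sf9 cells expressing recombinant human FLAP (5 μg/well) on WGA SPA beads were incubated with compound and 0.08 nM [125I]L-691,831 in Tris pH 7.5 binding buffer, shaken 2 h. Displacement read by scintillation proximity; non-specific binding set with 10 μM unlabelled L-691,831.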

Experiment [2] has as its system synthesis of LTB4 in human whole blood. The experiment in a line: Human whole blood assay (calcimycin-stimulated LTB4 synthesis). As to conditions: read-out: Human Whole Blood LTB4 Assay for FLAP (IC50 nM). Type of experiment: cell-based. Put shortly: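 Steps: compound plus heparinized human whole blood, 15 min at 37° C; add calcimycin to 20 μM final; incubate another 30 min at 37° C; centrifuge at low speed and collect plasma; measure LTB4 with a homogeneous time-resolved fluorescence immunoassay.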

The structures appear in SMILES notation. Like-named read-outs stand apart in the source and are kept apart here.

What is called IC50 is the concentration that inhibits the measured activity by half. Consider `Nc1ncc(-c2ccc(C3(c4nc5ccccc5[nH]4)CCC3)cc2)cn1` [Example 139, 5-{4-[1-(1H-benzimidazol-2-yl)cyclobutyl]phenyl}pyrimidin-2-amine], for which the figures for the half-maximal inhibitory concentration (IC50) in experiment [1] and in experiment [2] (Homo sapiens) were 27 nM and above 5000 nM, respectively.

As for `Nc1ncc(-c2ccc(C3(c4nc5ccccc5s4)CCC3)cn2)cn1` [Example 140, 5-{5-[1-(1,3-benzothiazol-2-yl)cyclobutyl]pyridin-2-yl}pyrimidin-2-amine], the IC50 was 10 nM in experiment [1] and above 5000 nM in experiment [2] (Homo sapiens).

`Cc1cc2c(C3(c4ccc(-c5cnc(N)nc5)cc4)CCC3)c[nH]c2cn1` [Example 141, 5-{4-[1-(5-methyl-1H-pyrrolo[2,3-c]pyridin-3-yl)cyclobutyl]phenyl}pyrimidin-2-amine]: the IC50 amounted to 5.8 nM in experiment [1] and 350 nM in experiment [2] (Homo sapiens).

On to `Nc1ncc(-c2ccc(C3(c4nnc(-c5ccc(F)cc5)[nH]4)CCC3)cn2)cn1` [Example 143, 5-(5-{1-[5-(4-fluorophenyl)-4H-1,2,4-triazol-3-yl]cyclobutyl}pyridin-2-yl)pyrimidin-2-amine], for which the IC50 was 12 nM in experiment [1] and 1500 nM in experiment [2] (Homo sapiens).

As for `COc1ccc(-c2nnc(C3(c4ccc(-c5cnc(N)nc5)cc4)CCC3)[nH]2)cn1` [Example 144, 5-(4-{1-[5-(6-methoxypyridin-3-yl)-4H-1,2,4-triazol-3-yl]cyclobutyl}phenyl)pyrimidin-2-amine], the results for the IC50 in experiment [1] and in experiment [2] (Homo sapiens) were 4 nM and 2500 nM, respectively.

In the case of `COc1nccc2c(C3(c4ccc(-c5cnc(N)nc5)cc4)CCC3)c[nH]c12` [Example 145, 5-{4-[1-(7-methoxy-1H-pyrrolo[2,3-b]pyridin-3-yl)cyclobutyl]phenyl}pyrimidin-2-amine], the concentration for half-maximal inhibition (IC50) in experiment [1] is 1.7 nM; in experiment [2], 150 nM.

`CN1CCN(C(=O)c2cccc3c(C4(c5ccc(-c6cnc(N)nc6)cc5)CCC4)c[nH]c23)CC1` [Example 146]: the IC50 in experiment [1] amounted to 1.7 nM; in experiment [2] (Homo sapiens) it was 310 nM.

As to `NC(=O)Cn1cc(C2(c3ccc(-c4cnc(N)nc4)cc3)CCC2)c2ccccc21` [Example 147], the IC50 in experiment [1] was 7.9 nM; in experiment [2] (Homo sapiens) it was above 5000 nM.

For the compound `Nc1ncc(-c2ccc(C3(c4cn(CC(=O)N5CCOCC5)c5ccccc45)CCC3)cc2)cn1` [Example 148, 2-(3-{1-[4-(2-aminopyrimidin-5-yl)phenyl]cyclobutyl}-1H-indol-1-yl)-1-(morpholin-4-yl)ethanone], the IC50 came to 9 nM in experiment [1] and 3100 nM in experiment [2] (Homo sapiens).

As for `Nc1ncc(-c2ccc(C3(c4c[nH]c5c(C(=O)N6CCC6)cccc45)CCC3)cc2)cn1` [Example 149, (3-{1-[4-(2-aminopyrimidin-5-yl)phenyl]cyclobutyl}-1H-indol-7-yl)(azetidin-1-yl)methanone], the IC50 in experiment [1] is 2 nM; in experiment [2] (Homo sapiens), 110 nM.

For the compound `Nc1ncc(-c2ccc(C3(c4c[nH]c5c(C(=O)O)cccc45)CCC3)cc2)cn1` [Example 150, 3-{1-[4-(2-aminopyrimidin-5-yl)phenyl]cyclobutyl}-1H-indole-7-carboxylic acid], the IC50 was 1.5 nM in experiment [1] and above 5000 nM in experiment [2] (Homo sapiens).

`Cc1cc(C2(c3c[nH]c4ccccc34)CCC2)ccc1-c1cnc(N)nc1` [Example 151, 5-{4-[1-(1H-indol-3-yl)cyclobutyl]-2-methylphenyl}pyrimidin-2-amine]: the values for the IC50 in experiment [1] and in experiment [2] (Homo sapiens) were 7 nM and 890 nM, respectively.

Turning to `Cc1nccc2c(C3(c4ccc(-c5cnc(N)nc5)cc4)CCC3)c[nH]c12` [Example 152, 5-{4-[1-(7-methyl-1H-pyrrolo[2,3-c]pyridin-3-yl)cyclobutyl]phenyl}pyrimidin-2-amine], the IC50 in experiment [1] turned out to be 1.7 nM; in experiment [2] (Homo sapiens), 55 nM.

Take `COc1ncccc1-c1nnc(C2(c3ccc(-c4cnc(N)nc4)cc3)CCC2)[nH]1` [Example 153, 5-(4-{1-[5-(2-methoxypyridin-3-yl)-4H-1,2,4-triazol-3-yl]cyclobutyl}phenyl)pyrimidin-2-amine]: the IC50 in experiment [1] stood at 3.1 nM; in experiment [2] (Homo sapiens) it was 1100 nM.

On to `Cn1cc(C(c2ccc(-c3cnc(N)nc3)cc2)C(C)(C)C)c2ccccc21` (stereo not shown) [Example 154, 5-{4-[2,2-dimethyl-1-(1-methyl-1H-indol-3-yl)propyl]phenyl}pyrimidin-2-amine], for which the 50% inhibitory concentration (IC50) in experiment [1] is 22 nM; in experiment [2] (Homo sapiens), above 5000 nM.

Consider `Nc1ncc(-c2ccc(C3(c4c[nH]c5c(=O)[nH]ccc45)CCC3)cc2)cn1` [Example 155], for which the IC50 in experiment [1] stood at 2.5 nM; in experiment [2] (Homo sapiens), 370 nM.

`Cn1cc(C(c2ccc(-c3cnc(N)nc3)cn2)C(C)(C)C)c2ccccc21` (stereo not shown) [Example 156, 5-{6-[2,2-dimethyl-1-(1-methyl-1H-indol-3-yl)propyl]pyridin-3-yl}pyrimidin-2-amine]: the figures for the IC50 in experiment [1] and in experiment [2] (Homo sapiens) were 260 nM and above 5000 nM, respectively.

Turning to `Cc1ccc(-c2csc(C3(c4ccc(-c5cnc(N)nc5)cc4)CCC3)n2)cn1` [Example 157, 5-(4-{1-[4-(6-methylpyridin-3-yl)-1,3-thiazol-2-yl]cyclobutyl}phenyl)pyrimidin-2-amine], the values for the IC50 in experiment [1] and in experiment [2] (Homo sapiens) were 16 nM and 2600 nM, respectively.

With `Cc1ccc(-c2cc(C3(c4ccc(-c5cnc(N)nc5)cc4)CCC3)no2)cn1` [Example 158, 5-(4-{1-[5-(6-methylpyridin-3-yl)-1,2-oxazol-3-yl]cyclobutyl}phenyl)pyrimidin-2-amine], the IC50 in experiment [1] is 5.2 nM; in experiment [2] (Homo sapiens), 430 nM.

With `COCCNC(=O)c1cccc2c(C3(c4ccc(-c5cnc(N)nc5)cc4)CCC3)c[nH]c12` [Example 159], the half-maximal inhibitory concentration (IC50) in experiment [1] was 1.9 nM; in experiment [2] (Homo sapiens), 43 nM.

In the case of `Cc1ccc(-c2cc(C(C)(c3ccc(-c4cnc(N)nc4)nc3)C(C)C)[nH]n2)cn1` (stereo not shown) [Example 160, 5-(5-{3-methyl-2-[5-(6-methylpyridin-3-yl)-1H-pyrazol-3-yl]butan-2-yl}pyridin-2-yl)pyrimidin-2-amine], the IC50 in experiment [1] was 8.4 nM; in experiment [2] (Homo sapiens), 1400 nM.

With `CC(C)C(C)(c1ccc(-c2cnc(N)nc2)nc1)c1cc(-c2cnn(C)c2)on1` (stereo not shown) [Example 161, 5-(5-{3-methyl-2-[5-(1-methyl-1H-pyrazol-4-yl)-1,2-oxazol-3-yl]butan-2-yl}pyridin-2-yl)pyrimidin-2-amine], the IC50 in experiment [1] amounted to 8.2 nM; in experiment [2] (Homo sapiens) it was 160 nM.

`COC(=O)c1c[nH]cc1C1(c2ccc(-c3cnc(N)nc3)cc2)CCC1` [Example 162, methyl 4-[1-[4-(2-aminopyrimidin-5-yl)phenyl]cyclobutyl]-1H-pyrrole-3-carboxylate]: the 50% inhibitory concentration (IC50) in experiment [1] worked out at 210 nM; in experiment [2] (Homo sapiens), 1500 nM.

Regarding `Nc1ncc(-c2ccc(C3(c4c(-c5ccc(F)cc5)[nH]c5ccccc45)CCC3)cc2)cn1` [Example 163, 5-(4-{1-[2-(4-fluorophenyl)-1H-indol-3-yl]cyclobutyl}phenyl)pyrimidin-2-amine], the IC50 in experiment [1] was 5.7 nM; in experiment [2] (Homo sapiens), 590 nM.

Turning to `Cn1cc(-c2coc(C3(c4ccc(-c5cnc(N)nc5)cc4)CCC3)n2)cn1` [Example 164, 5-(4-{1-[4-(1-methyl-1H-pyrazol-4-yl)-1,3-oxazol-2-yl]cyclobutyl}phenyl)pyrimidin-2-amine], the half-inhibitory concentration (IC50) in experiment [1] turned out to be 3.7 nM; in experiment [2] (Homo sapiens) it was 93 nM.

Consider `COC(=O)c1[nH]c2ccccc2c1C1(c2ccc(-c3cnc(N)nc3)cc2)CCC1` [Example 165, methyl 3-{1-[4-(2-aminopyrimidin-5-yl)phenyl]cyclobutyl}-1H-indole-2-carboxylate], for which the figures for the IC50 in experiment [1] and in experiment [2] (Homo sapiens) were 6.1 nM and 160 nM, respectively.
